Holding throughout (format): cell-based
The subject of one test is normal skin fibroblast. Description: Enzyme activities in culture supernatants of normal cell + various reagents. To be noted: for GALC enzyme activity in culture supernatant / total β-Hex enzyme activity in culture supernatant / α-Fuc enzyme activity in culture supernatant / α-Gal enzyme activity in culture supernatant / α-Gluc enzyme activity in culture supernatant / α-Iduro enzyme activity in culture supernatant / α-Man enzyme activity in culture supernatant / β-Gal enzyme activity in culture supernatant / β-Gluc enzyme activity in culture supernatant / β-Glucuro enzyme activity in culture supernatant / β-Hex A enzyme activity in culture supernatant: NH4Cl 20 mM, CQ 20 uM, Bafilo 20 nM; for excretion of group of lysosomal enzymes compared with no reagent added: Tables 1 and 2. Here is the method: In a culture dish with a diameter of 10 cm, a normal skin fibroblast was cultured in a DMEM medium containing 10% FBS (fetal bovine serum) and a recommended amount of an antibiotic and/or an antibacterial agent [Gibco (registered trade name) Antibiotic-Antimycotic, Life Technologies] (hereinafter, referred to as “a standard culture medium”) until the cell became confluent. To the cultured normal skin fibroblast, ammonium chloride was added in such an amount that the concentration of ammonium chloride became 20 mM in the culture medium. Then, the cell was cultured. Seven days after, a culture supernatant was collected, and filtered with a 0.2 μm sterilizing filter to remove large debris and living cells. After the filtration, the activities of lysosomal enzymes contained in the supernatant were measured by a method as described later.
To confirm that the lysosomal enzyme group thus obtained contained lysosomal enzymes, the culture supernatant obtained after addition of ammonium chloride and culture was subjected to measurement of the activities of lysosomal enzymes. As controls, a culture supernatant of a normal skin fibroblast that was cultured without addition of ammonium chloride, and a culture supernatant of an ML-II patient-derived skin fibroblast (hereinafter, referred to as “an ML-II cell”) that was cultured without addition of ammonium chloride were used to measure the activities of lysosomal enzymes in the culture supernatant.
(§1) The activities of lysosomal enzymes were measured by a standard method using an artificial 4-methylumbelliferyl substrate. Briefly, a sample was incubated with the artificial substrate at 37° C. for 1 hour in an acidic phosphate or citrate buffer, and fluorescence was measured on a microplate reader at an excitation wavelength of 365 nm and an emission wavelength of 450 nm. For galactocerebrosidase, 6-hexadecanoylamino-4-methylumbelliferyl β-D-galactopyranoside (Slater and Frith Ltd.) was used as a substrate, and fluorescence was measured at an excitation wavelength of 385 nm and an emission wavelength of 450 nm. The enzyme activities were calculated as nmol/h/μL.
In a culture dish with a diameter of 10 cm, a normal skin fibroblast was cultured in a standard culture medium until the cell became confluent. […] Then, the cell was cultured. Five days after and 7 days after, a culture supernatant was collected, and filtered with a 0.2 μm sterilizing filter to remove large debris and living cells. After the filtration, the activities of lysosomal enzymes contained in the supernatant were measured by the same method as described in Example 1. As a control, a culture supernatant of a normal skin fibroblast that was cultured in a standard culture medium with no addition of any reagents was used to measure the activities of lysosomal enzymes in the culture supernatant.
In Tables 1 and 2, β-Gal means β-galactosidase, total β-Hex means total β-hexosaminidase, β-Hex A means β-hexosaminidase A, β-Gluc means β-glucosidase, α-Man means α-mannosidase, α-Fuc means α-fucosidase, α-Gluc means α-glucosidase, α-Gal means α-galactosidase, β-Glucuro means β-glucuronidase, α-L-Iduro means α-L-iduronidase, and GALC means galactocerebrosidase. SCM means a standard culture medium with no addition of any reagents. […] Bafilo means bafilomycin A1. The enzyme activity is expressed as nmol/h/μL.

The next test deals with COS-1 cell. Nature of the test: Enzyme activities in culture supernatant of COS-1 cell + NH4Cl. Here is the method: as §1
In a culture dish with a diameter of 10 cm, a COS-1 cell was cultured in a standard culture medium until the cell became confluent. To the cultured COS-1 cell, ammonium chloride was added in such an amount that the concentration became 20 mM in the culture medium. Then, the cell was cultured. Three days after, a culture supernatant was collected, and filtered with a 0.2 μm sterilizing filter to remove large debris and living cells. After the filtration, the activities of lysosomal enzymes contained in the supernatant were measured by the same method as described in Example 1. As a control, a culture supernatant of a COS-1 cell that was cultured in a standard culture medium with no addition of ammonium chloride was used to measure the activities of lysosomal enzymes in the culture supernatant.
In Table 3, β-Gal means β-galactosidase, total β-Hex means total β-hexosaminidase, β-Hex A means β-hexosaminidase A, β-Gluc means β-glucosidase, α-Man means α-mannosidase, α-Fuc means α-fucosidase, α-Gluc means α-glucosidase, α-Gal means α-galactosidase, β-Glucuro means β-glucuronidase, α-L-Iduro means α-L-iduronidase, and GALC means galactocerebrosidase. NH4Cl(−) means a culture supernatant in the case of no addition of ammonium chloride. NH4Cl(+) means a culture supernatant in the case of addition of ammonium chloride. The enzyme activity is expressed as nmol/h/μL.

Test [1] addresses T1, mannose 6-phosphate receptor (Homo sapiens, UniProt P11717).
T1 construct: a mannose 6-phosphate receptor on the cell surface; endogenous in cells; host or cells: ML-II cell
Description: Competitive inhibition test for mannose 6-phosphate. To be noted: ML-II cell, FIG. 4.

SMILES strings stand for the structures.

T1 sequence (P11717 41-2491): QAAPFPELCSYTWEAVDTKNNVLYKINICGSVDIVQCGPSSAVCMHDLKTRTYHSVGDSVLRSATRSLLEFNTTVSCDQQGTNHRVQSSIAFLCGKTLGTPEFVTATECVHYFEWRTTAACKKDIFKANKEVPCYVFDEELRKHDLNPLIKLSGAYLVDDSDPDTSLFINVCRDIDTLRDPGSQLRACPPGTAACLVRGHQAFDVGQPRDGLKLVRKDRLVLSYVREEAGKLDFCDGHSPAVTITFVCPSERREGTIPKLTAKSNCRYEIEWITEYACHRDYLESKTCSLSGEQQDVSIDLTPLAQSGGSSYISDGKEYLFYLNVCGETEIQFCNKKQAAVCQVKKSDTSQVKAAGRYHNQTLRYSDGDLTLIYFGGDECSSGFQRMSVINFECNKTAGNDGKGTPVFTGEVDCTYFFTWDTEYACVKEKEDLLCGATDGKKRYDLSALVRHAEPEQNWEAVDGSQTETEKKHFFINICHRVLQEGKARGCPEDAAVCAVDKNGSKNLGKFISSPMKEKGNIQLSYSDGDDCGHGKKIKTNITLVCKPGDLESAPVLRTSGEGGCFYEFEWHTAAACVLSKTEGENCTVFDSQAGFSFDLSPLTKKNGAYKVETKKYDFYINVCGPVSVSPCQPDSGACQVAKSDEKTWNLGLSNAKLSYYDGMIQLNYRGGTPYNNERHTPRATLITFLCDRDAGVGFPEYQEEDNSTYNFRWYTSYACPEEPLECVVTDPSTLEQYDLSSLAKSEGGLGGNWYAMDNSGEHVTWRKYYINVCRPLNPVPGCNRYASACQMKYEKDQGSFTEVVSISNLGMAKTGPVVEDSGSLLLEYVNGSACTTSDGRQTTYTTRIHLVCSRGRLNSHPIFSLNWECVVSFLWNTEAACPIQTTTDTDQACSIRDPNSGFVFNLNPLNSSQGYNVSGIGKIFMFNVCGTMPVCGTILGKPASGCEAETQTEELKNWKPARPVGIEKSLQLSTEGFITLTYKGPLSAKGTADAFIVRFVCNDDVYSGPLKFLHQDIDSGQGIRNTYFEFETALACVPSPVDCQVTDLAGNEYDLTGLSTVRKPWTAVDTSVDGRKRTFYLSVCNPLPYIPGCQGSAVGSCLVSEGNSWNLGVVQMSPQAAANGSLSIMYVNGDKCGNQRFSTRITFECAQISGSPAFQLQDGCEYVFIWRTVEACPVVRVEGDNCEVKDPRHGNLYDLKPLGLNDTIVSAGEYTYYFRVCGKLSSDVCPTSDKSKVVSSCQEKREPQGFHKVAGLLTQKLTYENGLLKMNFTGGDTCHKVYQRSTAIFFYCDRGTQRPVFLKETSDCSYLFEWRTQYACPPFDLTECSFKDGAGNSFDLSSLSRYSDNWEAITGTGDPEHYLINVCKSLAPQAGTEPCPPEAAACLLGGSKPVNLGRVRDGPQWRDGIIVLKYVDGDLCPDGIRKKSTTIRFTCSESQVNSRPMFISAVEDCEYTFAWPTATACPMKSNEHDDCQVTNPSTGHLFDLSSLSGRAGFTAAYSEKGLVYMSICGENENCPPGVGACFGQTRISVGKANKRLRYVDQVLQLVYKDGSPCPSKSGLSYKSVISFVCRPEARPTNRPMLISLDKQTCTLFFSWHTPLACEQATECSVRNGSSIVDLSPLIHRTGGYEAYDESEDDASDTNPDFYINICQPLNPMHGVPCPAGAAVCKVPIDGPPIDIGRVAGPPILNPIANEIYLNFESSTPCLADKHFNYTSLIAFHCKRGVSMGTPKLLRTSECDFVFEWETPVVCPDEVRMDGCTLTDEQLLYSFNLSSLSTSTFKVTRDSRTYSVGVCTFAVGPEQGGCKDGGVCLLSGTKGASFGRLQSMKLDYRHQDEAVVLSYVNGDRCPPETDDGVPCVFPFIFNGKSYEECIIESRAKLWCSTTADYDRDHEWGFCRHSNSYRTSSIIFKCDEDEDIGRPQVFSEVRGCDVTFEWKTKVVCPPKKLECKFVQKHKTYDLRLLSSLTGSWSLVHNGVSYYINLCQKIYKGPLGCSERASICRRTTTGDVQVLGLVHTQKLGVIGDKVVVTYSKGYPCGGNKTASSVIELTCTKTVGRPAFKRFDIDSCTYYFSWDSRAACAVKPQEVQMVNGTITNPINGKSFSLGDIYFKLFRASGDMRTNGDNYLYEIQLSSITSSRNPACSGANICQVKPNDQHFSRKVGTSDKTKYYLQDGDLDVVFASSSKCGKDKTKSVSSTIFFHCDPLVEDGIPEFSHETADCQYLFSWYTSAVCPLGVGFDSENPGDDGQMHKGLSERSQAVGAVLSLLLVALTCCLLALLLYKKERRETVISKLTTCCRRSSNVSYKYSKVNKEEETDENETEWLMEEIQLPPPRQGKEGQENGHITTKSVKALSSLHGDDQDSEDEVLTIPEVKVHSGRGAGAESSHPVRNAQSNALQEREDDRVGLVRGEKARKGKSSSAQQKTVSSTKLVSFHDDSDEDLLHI

With `CO/C1=C\C(C)=C\[C@@H](C)[C@@H](O)[C@@H](C)C/C(C)=C/C=C/[C@H](OC)[C@@H]([C@@H](C)[C@@H](O)[C@H](C)[C@@]2(O)C[C@@H](O)[C@H](C)[C@@H](C(C)C)O2)OC1=O` [Bafilo, bafilomycin A1], in the test on normal skin fibroblast (Day 5, normal cell), the “GALC enzyme activity in culture supernatant” value (from here on “GALC enzyme activity”) worked out at 0.64 nmol/h/µL, the “total β-Hex enzyme activity in culture supernatant” value (shortened to “total β-Hex enzyme activity”) worked out at 437.7 nmol/h/µL, the “α-Fuc enzyme activity in culture supernatant” value (shortened to “α-Fuc enzyme activity”) was determined as 3.49 nmol/h/µL and the “α-Gal enzyme activity in culture supernatant” value (“α-Gal enzyme activity” for short) was found to be 0 nmol/h/µL. Besides, in the test with normal skin fibroblast (Day 5, normal cell), the “α-Gluc enzyme activity in culture supernatant” value (“α-Gluc enzyme activity” below) turned out to be 1.13 nmol/h/µL, the “α-Iduro enzyme activity in culture supernatant” value (“α-Iduro enzyme activity” below) came out at 0.57 nmol/h/µL, the “α-Man enzyme activity in culture supernatant” value (“α-Man enzyme activity” for short) turned out to be 100.4 nmol/h/µL and the “β-Gal enzyme activity in culture supernatant” value (“β-Gal enzyme activity” below) stood at 4.65 nmol/h/µL. In addition, in the test with normal skin fibroblast (Day 5, normal cell), the “β-Gluc enzyme activity in culture supernatant” value (shortened to “β-Gluc enzyme activity”) is 3.97 nmol/h/µL, the “β-Glucuro enzyme activity in culture supernatant” value (from here on “β-Glucuro enzyme activity”) turned out to be 4.07 nmol/h/µL and the “β-Hex A enzyme activity in culture supernatant” value (“β-Hex A enzyme activity” below) was 18.9 nmol/h/µL. For the same compound, in the test with normal skin fibroblast (Day 7, normal cell), the “GALC enzyme activity” value turned out to be 0.69 nmol/h/µL, the “total β-Hex enzyme activity” value was 300.5 nmol/h/µL, the “α-Fuc enzyme activity” value is 3.97 nmol/h/µL and the “α-Gal enzyme activity” value was 0.91 nmol/h/µL. In the test with normal skin fibroblast (Day 7, normal cell), the “α-Gluc enzyme activity” value stood at 2.44 nmol/h/µL, the “α-Iduro enzyme activity” value came to 0.64 nmol/h/µL, the “α-Man enzyme activity” value amounted to 123.9 nmol/h/µL and the “β-Gal enzyme activity” value turned out to be 2.93 nmol/h/µL. Further, in the test with normal skin fibroblast (Day 7, normal cell), the “β-Gluc enzyme activity” value came to 8.65 nmol/h/µL, the “β-Glucuro enzyme activity” value stood at 8.03 nmol/h/µL and the “β-Hex A enzyme activity” value came to 22.5 nmol/h/µL. Also, the “excretion of group of lysosomal enzymes compared with no reagent added” value (“excretion … compared with no reagent added” for short) in the test on normal skin fibroblast (normal skin fibroblast) was “excreted in larger amounts”.
In the case of `CCN(CC)CCCC(C)Nc1ccnc2cc(Cl)ccc12` (centres unmarked) [CQ, chloroquine], the “excretion … compared with no reagent added” value with normal skin fibroblast (normal skin fibroblast) was “excreted in larger amounts”.
Take `Cl.N` [NH4Cl, ammonium chloride]: in the test on normal skin fibroblast (Day 5, normal cell), the “GALC enzyme activity” value stood at 0.55 nmol/h/µL, the “total β-Hex enzyme activity” value was 736.1 nmol/h/µL, the “α-Fuc enzyme activity” value came to 6.68 nmol/h/µL and the “α-Gal enzyme activity” value amounted to 0 nmol/h/µL. In addition, in the test with normal skin fibroblast (Day 5, normal cell), the “α-Gluc enzyme activity” value came to 1.92 nmol/h/µL, the “α-Iduro enzyme activity” value was 3.61 nmol/h/µL, the “α-Man enzyme activity” value is 137.1 nmol/h/µL and the “β-Gal enzyme activity” value came out at 8.20 nmol/h/µL. In the test with normal skin fibroblast (Day 5, normal cell), the “β-Gluc enzyme activity” value stood at 4.53 nmol/h/µL, the “β-Glucuro enzyme activity” value turned out to be 3.85 nmol/h/µL and the “β-Hex A enzyme activity” value turned out to be 67.0 nmol/h/µL. Moreover, in the test with normal skin fibroblast (Day 7, normal cell), the “GALC enzyme activity” value was determined as 0.50 nmol/h/µL, the “total β-Hex enzyme activity” value worked out at 1239.2 nmol/h/µL, the “α-Fuc enzyme activity” value stood at 5.70 nmol/h/µL and the “α-Gal enzyme activity” value was 0.84 nmol/h/µL. In the test with normal skin fibroblast (Day 7, normal cell), the “α-Gluc enzyme activity” value turned out to be 4.51 nmol/h/µL, the “α-Iduro enzyme activity” value is 13.90 nmol/h/µL, the “α-Man enzyme activity” value came out at 200.0 nmol/h/µL and the “β-Gal enzyme activity” value came to 11.65 nmol/h/µL. For the same compound, in the test on normal skin fibroblast (Day 7, normal cell), the “β-Gluc enzyme activity” value turned out to be 5.39 nmol/h/µL, the “β-Glucuro enzyme activity” value was found to be 12.78 nmol/h/µL and the “β-Hex A enzyme activity” value was determined as 157.9 nmol/h/µL. In addition, the “excretion … compared with no reagent added” value in the test with normal skin fibroblast (normal skin fibroblast) was “excreted in larger amounts”. Moreover, in the test with normal skin fibroblast (normal skin fibroblast, ammonium chloride 20 mM, seven days, FIG. 1), the “kinds of lysosomal enzymes contained in culture supernatant” value was “at least 10 kinds”. The “excretion of group of lysosomal enzymes compared with no addition of ammonium chloride” value in the test with COS-1 cell (COS-1 cell, Table 3) is on record as “excreted in larger amounts”. In the test on COS-1 cell (Day 3, COS1, NH4Cl 20 mM), the “GALC enzyme activity” value is 0.41 nmol/h/µL, the “total β-Hex enzyme activity” value came to 799.8 nmol/h/µL, the “α-Fuc enzyme activity” value was 24.2 nmol/h/µL and the “α-Gal enzyme activity” value was 10.60 nmol/h/µL. For the same compound, in the test with COS-1 cell (Day 3, COS1, NH4Cl 20 mM), the “α-Gluc enzyme activity” value amounted to 7.96 nmol/h/µL, the “α-Iduro enzyme activity” value is 13.60 nmol/h/µL, the “α-Man enzyme activity” value came out at 178.0 nmol/h/µL and the “β-Gal enzyme activity” value came to 25.26 nmol/h/µL. Also, in the test on COS-1 cell (Day 3, COS1, NH4Cl 20 mM), the “β-Gluc enzyme activity” value worked out at 6.64 nmol/h/µL, the “β-Glucuro enzyme activity” value was 21.37 nmol/h/µL and the “β-Hex A enzyme activity” value was found to be 85.9 nmol/h/µL.
In the case of `O=C[C@@H](O)[C@@H](O)[C@H](O)[C@H](O)COP(=O)(O)O` [mannose 6-phosphate], the “β-glucosidase in mannose 6-phosphate competitive inhibition test” value in test [1] is “not to be affected”. Also, the “intracellular uptake of lysosomal enzymes” value in test [1] (mannose 6-phosphate 0, 5 or 10 mM with lysosomal enzyme group sample) is “concentration-dependently and competitively inhibited”.

(Values after patent publication US9138465B2, “Pharmaceutical composition for treating lysosomal storage disease” (OSAKA UNIVERSITY, priority 2011, dated 2015).)
